Article PMC8480901 (PLoS ONE, 2021)
Where “and” joins values, the source holds several entries; their conditions need not be identical. Equal entries are not always repeated.

System: human PBMCs
Test: LPS-induced cytokine and chemokine levels in human PBMC supernatant (Luminex, ELISA)
Type: cell-based
Conditions: LPS-stimulated PBMC supernatant; for CCl2, Mean / CXCL1, Mean / CXCL2, Mean / MMP9, Mean: sample size 2; for CCl2, individual value / CXCL1, individual value / CXCL2, individual value / MMP9, individual value: single replicate

In the case of C[C@@H]1C[C@H]2[C@@H]3CCC4=CC(=O)C=C[C@]4(C)[C@@]3(F)[C@@H](O)C[C@]2(C)[C@@]1(O)C(=O)CO [Dexamethasone], the “CCl2, % reduction” value (0.0003 µM) is reported as -4.68%, the “CXCL1 % reduction” value (0.0003 µM) is reported as -4% and the “CXCL2 % reduction” value (0.0003 µM) is reported as 4%. For the same molecule, the “MMP9 % reduction” value (0.0003 µM) was 3.74%, the “CCl2, Mean” value (0.0003 µM) was 1323 pg/mL and the “CXCL1, Mean” value (0.0003 µM) was 6192 pg/mL. The “CXCL2, Mean” value (0.0003 µM) was 4849 pg/mL, the “MMP9, Mean” value (0.0003 µM) was 2934 pg/mL and the “CCl2, individual value” (0.0003 µM) was 1383 pg/mL and 1264 pg/mL. The “CXCL1, individual value” (0.0003 µM) was 6146 pg/mL and 6238 pg/mL, the “CXCL2, individual value” (0.0003 µM) was 4762 pg/mL and 4936 pg/mL and the “MMP9, individual value” (0.0003 µM) was 2852 pg/mL and 3016 pg/mL. For the same molecule, the “CCl2, % reduction” value (0.001 µM) was 0.423%, the “CXCL1 % reduction” value (0.001 µM) was 1.28% and the “CXCL2 % reduction” value (0.001 µM) was 3%. For the same molecule, the “MMP9 % reduction” value (0.001 µM) was 7%, the “CCl2, Mean” value (0.001 µM) was 1261 pg/mL and the “CXCL1, Mean” value (0.001 µM) was 5877 pg/mL. The “CXCL2, Mean” value (0.001 µM) was 4905 pg/mL, the “MMP9, Mean” value (0.001 µM) was 2887 pg/mL and the “CCl2, individual value” (0.001 µM) was 1275 pg/mL and 1246 pg/mL. For the same molecule, the “CXCL1, individual value” (0.001 µM) was 5806 pg/mL and 5947 pg/mL, the “CXCL2, individual value” (0.001 µM) was 4830 pg/mL and 4980 pg/mL and the “MMP9, individual value” (0.001 µM) was 2894 pg/mL and 2879 pg/mL. For the same molecule, the “CCl2, % reduction” value (0.003 µM) was 17%, the “CXCL1 % reduction” value (0.003 µM) was 6% and the “CXCL2 % reduction” value (0.003 µM) was 4%. For the same molecule, the “MMP9 % reduction” value (0.003 µM) was 16%, the “CCl2, Mean” value (0.003 µM) was 1056 pg/mL and the “CXCL1, Mean” value (0.003 µM) was 5588 pg/mL. For the same molecule, the “CXCL2, Mean” value (0.003 µM) was 4851 pg/mL, the “MMP9, Mean” value (0.003 µM) was 2739 pg/mL and the “CCl2, individual value” (0.003 µM) was 1044 pg/mL and 1067 pg/mL. For the same molecule, the “CXCL1, individual value” (0.003 µM) was 5506 pg/mL and 5671 pg/mL, the “CXCL2, individual value” (0.003 µM) was 4888 pg/mL and 4814 pg/mL and the “MMP9, individual value” (0.003 µM) was 2727 pg/mL and 2751 pg/mL. The “CCl2, % reduction” value (0.01 µM) was 33%, the “CXCL1 % reduction” value (0.01 µM) was 16% and the “CXCL2 % reduction” value (0.01 µM) was 17%. For the same molecule, the “MMP9 % reduction” value (0.01 µM) was 23%, the “CCl2, Mean” value (0.01 µM) was 860 pg/mL and the “CXCL1, Mean” value (0.01 µM) was 5032 pg/mL. For the same molecule, the “CXCL2, Mean” value (0.01 µM) was 4217 pg/mL, the “MMP9, Mean” value (0.01 µM) was 2621 pg/mL and the “CCl2, individual value” (0.01 µM) was 863 pg/mL and 858 pg/mL. For the same molecule, the “CXCL1, individual value” (0.01 µM) was 4889 pg/mL and 5174 pg/mL, the “CXCL2, individual value” (0.01 µM) was 4342 pg/mL and 4092 pg/mL and the “MMP9, individual value” (0.01 µM) was 2587 pg/mL and 2655 pg/mL. For the same molecule, the “CCl2, % reduction” value (0.03 µM) was 46%, the “CXCL1 % reduction” value (0.03 µM) was 25% and the “CXCL2 % reduction” value (0.03 µM) was 30%. The “MMP9 % reduction” value (0.03 µM) was 24%, the “CCl2, Mean” value (0.03 µM) was 701 pg/mL and the “CXCL1, Mean” value (0.03 µM) was 4474 pg/mL. For the same molecule, the “CXCL2, Mean” value (0.03 µM) was 3565 pg/mL, the “MMP9, Mean” value (0.03 µM) was 2601 pg/mL and the “CCl2, individual value” (0.03 µM) was 757 pg/mL and 644 pg/mL. For the same molecule, the “CXCL1, individual value” (0.03 µM) was 4471 pg/mL and 4477 pg/mL, the “CXCL2, individual value” (0.03 µM) was 3377 pg/mL and 3753 pg/mL and the “MMP9, individual value” (0.03 µM) was 2572 pg/mL and 2630 pg/mL. The “CCl2, % reduction” value (0.1 µM) was 56%, the “CXCL1 % reduction” value (0.1 µM) was 35% and the “CXCL2 % reduction” value (0.1 µM) was 40%. The “MMP9 % reduction” value (0.1 µM) was 39%, the “CCl2, Mean” value (0.1 µM) was 584 pg/mL and the “CXCL1, Mean” value (0.1 µM) was 3861 pg/mL. For the same molecule, the “CXCL2, Mean” value (0.1 µM) was 3024 pg/mL, the “MMP9, Mean” value (0.1 µM) was 2364 pg/mL and the “CCl2, individual value” (0.1 µM) was 488 pg/mL and 679 pg/mL. For the same molecule, the “CXCL1, individual value” (0.1 µM) was 3279 pg/mL and 4443 pg/mL, the “CXCL2, individual value” (0.1 µM) was 2644 pg/mL and 3404 pg/mL and the “MMP9, individual value” (0.1 µM) was 2111 pg/mL and 2616 pg/mL. For the same molecule, the “CCl2, % reduction” value (0.3 µM) was 55%, the “CXCL1 % reduction” value (0.3 µM) was 32% and the “CXCL2 % reduction” value (0.3 µM) was 49%. For the same molecule, the “MMP9 % reduction” value (0.3 µM) was 26%, the “CCl2, Mean” value (0.3 µM) was 591 pg/mL and the “CXCL1, Mean” value (0.3 µM) was 4087 pg/mL. The “CXCL2, Mean” value (0.3 µM) was 2585 pg/mL, the “MMP9, Mean” value (0.3 µM) was 2569 pg/mL and the “CCl2, individual value” (0.3 µM) was 580 pg/mL and 603 pg/mL. The “CXCL1, individual value” (0.3 µM) was 3996 pg/mL and 4178 pg/mL, the “CXCL2, individual value” (0.3 µM) was 2570 pg/mL and 2599 pg/mL and the “MMP9, individual value” (0.3 µM) was 2679 pg/mL and 2458 pg/mL. The “CCl2, % reduction” value (1 µM) was 58%, the “CXCL1 % reduction” value (1 µM) was 32% and the “CXCL2 % reduction” value (1 µM) was 48%. The “MMP9 % reduction” value (1 µM) was 46%, the “CCl2, Mean” value (1 µM) was 551 pg/mL and the “CXCL1, Mean” value (1 µM) was 4042 pg/mL. The “CXCL2, Mean” value (1 µM) was 2659 pg/mL, the “MMP9, Mean” value (1 µM) was 2244 pg/mL and the “CCl2, individual value” (1 µM) was 591 pg/mL and 510 pg/mL. The “CXCL1, individual value” (1 µM) was 4057 pg/mL and 4026 pg/mL, the “CXCL2, individual value” (1 µM) was 2573 pg/mL and 2746 pg/mL and the “MMP9, individual value” (1 µM) was 2290 pg/mL and 2198 pg/mL.
